The text below walks through data of ChEMBL document CHEMBL1140453, “Solid-phase synthesis and thermal denaturation study of cyclic PNAs targeting the HIV-1 TAR RNA loop” (Bioorg Med Chem Lett, 2007).

In assay [1] the test system is Nucleic Acid. The assay is described as follows: Binding affinity to HIV1 3B mini TAR RNA assessed as melting temperature by UV spectrometry based thermal denaturation assay. The conditions noted are these: Human immunodeficiency virus 1. Type of assay: nucleic-acid assay.
Assay [2] concerns Nucleic Acid. In words: Binding affinity to HIV1 3B mini TAR RNA assessed as change in melting temperature by UV spectrometry based thermal denaturation assay. Type of assay: nucleic-acid assay. The following applies: Human immunodeficiency virus 1.

For `Cc1cn(CC(=O)N(CCNC(=O)CN(CCNC(=O)[C@@H](N)CCCCN)C(=O)Cn2cnc3c(=O)[nH]c(N)nc32)CC(=O)NCCN(CC(=O)NCCN(CC(=O)NCCN(CC(=O)NCCN(CC(=O)NCCN(CC(=O)NCCN(CC(=O)N[C@@H](CCC(N)=O)C(=O)O)C(=O)Cn2cnc3c(N)ncnc32)C(=O)Cn2cnc3c(=O)[nH]c(N)nc32)C(=O)Cn2cnc3c(N)ncnc32)C(=O)Cn2ccc(N)nc2=O)C(=O)Cn2ccc(N)nc2=O)C(=O)Cn2ccc(N)nc2=O)c(=O)[nH]c1=O`, the Tm (usually the temperature at which the thermal transition is half complete) with Nucleic Acid [1] amounted to 40.5 °C. Moreover, the ΔTm – broadly, the shift of the melting midpoint relative to a reference – with Nucleic Acid [2] was 0.5 °C.

Regarding `Cc1cn(CC(=O)N(CCNC(=O)CN(CCNC(=O)[C@@H](N)CCCCN)C(=O)Cn2cnc3c(=O)[nH]c(N)nc32)CC(=O)NCCN(CC(=O)NCCN(CC(=O)NCCN(CC(=O)NCCN(CC(=O)NCCN(CC(=O)NCCN(CC(=O)N[C@@H](CCC(N)=O)C(=O)O)C(=O)Cn2cnc3c(N)ncnc32)C(=O)Cn2cnc3c(=O)[nH]c(N)nc32)C(=O)Cn2cnc3c(N)ncnc32)C(=O)Cn2ccc(N)nc2=O)C(=O)Cn2cnc3c(N)ncnc32)C(=O)Cn2ccc(N)nc2=O)c(=O)[nH]c1=O`, the Tm in the assay with Nucleic Acid [1] is 43.2 °C.
